Experiments:
Type in all cases: physicochemical
[1] = 1-MCP release from polyvinyl alcohol (PVA) film containing 1-MCP/α-cyclodextrin complex in humid chamber; details: for Concentration of 1-MCP: PVA film with 0.05 g complex, 36 liter high humidity chamber
Method: (§1) 1-MCP/α-cyclodextrin complex powder (0.05 grams) was heat sealed into a 2×3.5 inch piece of 1.5 mil thick M 7061 polyvinyl alcohol (PVA) film (Chris Craft Corp.) using a Sealmaster 420 (Audion Elektro) heat sealer. This film was placed into a 36 liter volume high humidity chamber. […] The 1-MCP release characteristics of the film versus time were determined by periodically analyzing the atmosphere in the chamber for 1-MCP. The analysis method was gas chromatography using a flame ionization detector.

[2] = 1-MCP release from low density polyethylene (LDPE) film containing 1-MCP/α-cyclodextrin complex in humid chamber; details: for Concentration of 1-MCP: LDPE film with 0.05 g complex, 36 liter high humidity chamber
Method: as §1, with “1-MCP/α-CD” for “1-MCP/α-cyclodextrin”, “5.5×12” for “2×3.5”, “2.0” for “1.5”, “low density polyethylene (LDPE) film.” for “M 7061 polyvinyl alcohol (PVA) film (Chris Craft Corp.) using a Sealmaster 420 (Audion Elektro) heat sealer.”

[3] = 1-MCP release from waxy, cast (Parafilm M) film containing 1-MCP/α-cyclodextrin complex in humid chamber; details: for Concentration of 1-MCP: waxy cast Parafilm M film with 0.5 g complex, 36 liter high humidity chamber
Method: Parafilm® “M” film (2.0 grams, American National Can Corp.) was dissolved/dispersed in 12 grams of hexane. 1-MCP/α-cyclodextrin complex powder (0.5 grams) was mixed into this suspension and then the whole mixture was poured into a 3.5 inch diameter glass crystallizing dish to dry. The dish was placed in a 50° C. oven for 5 hrs. to dry and the resulting cast film was removed from the dish. This film was placed into a 36 liter volume high humidity chamber being careful not to allow the film to contact any water directly. The 1-MCP release characteristics of the film versus time were determined by periodically analyzing the atmosphere in the chamber for 1-MCP. The analysis method was gas chromatography using a flame ionization detector.

[4] = 1-MCP release from high density polyethylene (HDPE) film exposed to 1-MCP gas, sealed jar; details: for Concentration of 1-MCP: HDPE film exposed to 2206 ppm 1-MCP for 2 hours, sealed quart jar
Method: (§2) High density polyethylene (HDPE) film of 2 mil thickness measuring 4.5×2.75 inches was exposed to 2206 ppm 1-MCP (vol/vol) in the atmosphere of a sealed quart jar for 2 hours. The film was removed, allowed to stand in air for 5 minutes and then sealed in a fresh quart jar equipped with a sampling septum. The 1-MCP release characteristics of the film versus time were determined by periodically analyzing the atmosphere in the jar for 1-MCP. The analysis method was gas chromatography using a flame ionization detector.

[5] = 1-MCP release from wax paper exposed to 1-MCP gas, sealed jar; details: for Concentration of 1-MCP: wax paper exposed to 2206 ppm 1-MCP for 5 hours, sealed quart jar
Method: as §2, with “Wax paper measuring” for “High density polyethylene (HDPE) film of 2 mil thickness measuring”, “for 5” for “for 2”

CC1=CC1 [Compound 1-MCP, 1-methylcyclopropene]
Concentration of 1-MCP ([1]; 0 min.): 0.0 ppm | Concentration of 1-MCP ([1]; 5 min.): 0.9 ppm | Concentration of 1-MCP ([1]; 25 min.): 2.2 ppm | Concentration of 1-MCP ([1]; 45 min.): 3.2 ppm | Concentration of 1-MCP ([1]; 90 min.): 6.0 ppm | Concentration of 1-MCP ([1]; 20 hr.): 17.0 ppm | 1-MCP release from the film (in words) ([1]; PVA film, high humidity chamber, no direct water contact): released from the PVA film just by the water provided by humidity | Concentration of 1-MCP ([2]; 0 min.): 0.0 ppm | Concentration of 1-MCP ([2]; 5 min.): 2.0 ppm | Concentration of 1-MCP ([2]; 20 min.): 7.7 ppm | Concentration of 1-MCP ([2]; 40 min.): 14.5 ppm | Concentration of 1-MCP ([2]; 60 min.): 19.0 ppm | 1-MCP release from the film (in words) ([2]; LDPE film, high humidity chamber, no direct water contact): released from the LDPE film just by the water provided by humidity | Concentration of 1-MCP ([3]; 0 min.): 0.0 ppm | Concentration of 1-MCP ([3]; 5 min.): 0.02 ppm | Concentration of 1-MCP ([3]; 20 min.): 0.1 ppm | Concentration of 1-MCP ([3]; 35 min.): 0.3 ppm | Concentration of 1-MCP ([3]; 60 min.): 0.8 ppm | Concentration of 1-MCP ([3]; 90 min.): 1.4 ppm | 1-MCP release from the film (in words) ([3]; waxy cast film, high humidity chamber, no direct water contact): released from the LDPE film just by the water provided by humidity | Concentration of 1-MCP ([4]; 0 sec.): 0.0 ppm | Concentration of 1-MCP ([4]; 0.5 min.): 3.0 ppm | Concentration of 1-MCP ([4]; 5 min.): 8.0 ppm | Concentration of 1-MCP ([4]; 15 min.): 9.6 ppm | Concentration of 1-MCP ([4]; 60 min.): 11.0 ppm | 1-MCP release from the film (in words) ([4]; HDPE film, sealed jar): significant release | Concentration of 1-MCP ([5]; 0 min.): 0.0 ppm | Concentration of 1-MCP ([5]; 0.5 min.): 0.3 ppm | Concentration of 1-MCP ([5]; 5 min.): 0.9 ppm | Concentration of 1-MCP ([5]; 15 min.): 0.9 ppm | Concentration of 1-MCP ([5]; 60 min.): 0.9 ppm | 1-MCP release from the film (in words) ([5]; wax paper, sealed jar): less release than Example 4, but still a significant amount

Reference: patent publication US6548448B2, “Delivery systems for cyclopropenes” (Rohm and Haas Company, priority 2001, dated 2003)
